In US20260183275A1, “SUBSTITUTED QUINOLONE COMPOUNDS USEFUL AS INHIBITORS OF TLR9” (Bristol-Myers Squibb Company, priority 2022, published 2026):

Assays:
Type in all cases: cell-based
[1] = target: T1, human TLR8 (Homo sapiens, UniProt Q9NR97); assay: TLR8 inhibition reporter assay (HEK-Blue cells, SEAP reporter); conditions: HEK-Blue cells overexpressing human TLR8; stimulated with R848 15.9 μM; SEAP read after 22 hour; dose range 0.05 nM-50 μM
T1 construct: host or cells: HEK-Blue cells
T1 sequence (Q9NR97 27-1041): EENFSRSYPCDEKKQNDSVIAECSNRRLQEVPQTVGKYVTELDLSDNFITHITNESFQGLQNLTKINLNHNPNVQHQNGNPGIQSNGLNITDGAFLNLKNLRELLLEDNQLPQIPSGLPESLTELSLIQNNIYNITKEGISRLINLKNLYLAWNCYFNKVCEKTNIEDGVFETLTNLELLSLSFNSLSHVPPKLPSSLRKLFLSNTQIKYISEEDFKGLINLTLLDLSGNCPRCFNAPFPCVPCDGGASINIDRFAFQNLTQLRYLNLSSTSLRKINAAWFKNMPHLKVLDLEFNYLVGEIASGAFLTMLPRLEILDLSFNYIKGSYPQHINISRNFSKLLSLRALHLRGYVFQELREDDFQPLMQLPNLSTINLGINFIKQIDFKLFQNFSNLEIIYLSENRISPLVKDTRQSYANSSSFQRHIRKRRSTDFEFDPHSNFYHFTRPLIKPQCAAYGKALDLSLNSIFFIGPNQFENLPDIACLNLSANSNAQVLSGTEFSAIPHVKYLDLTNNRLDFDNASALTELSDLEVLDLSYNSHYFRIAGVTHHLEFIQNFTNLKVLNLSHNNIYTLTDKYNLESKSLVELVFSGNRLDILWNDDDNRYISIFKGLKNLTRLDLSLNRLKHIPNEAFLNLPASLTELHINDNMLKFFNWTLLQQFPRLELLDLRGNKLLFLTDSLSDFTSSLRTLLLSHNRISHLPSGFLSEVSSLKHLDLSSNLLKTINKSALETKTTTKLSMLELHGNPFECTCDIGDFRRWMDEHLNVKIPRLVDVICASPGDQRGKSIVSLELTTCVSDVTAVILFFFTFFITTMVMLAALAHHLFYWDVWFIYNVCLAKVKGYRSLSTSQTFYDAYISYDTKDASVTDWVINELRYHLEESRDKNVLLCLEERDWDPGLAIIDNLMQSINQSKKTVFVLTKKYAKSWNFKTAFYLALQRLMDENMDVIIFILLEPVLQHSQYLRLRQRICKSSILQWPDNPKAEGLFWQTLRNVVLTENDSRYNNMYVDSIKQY
Outline: (§1)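 HEK-Blue cells with NF-κB/AP-1-driven SEAP pre-treated 30 min with compounds (0.05 nM-50 μM), then stimulated with gardiquimod 7.5 μM (TLR7), R848 15.9 μM (TLR8) or ODN2006 5 nM (TLR9). SEAP read after 22 h at 37° C; % inhibition relative to agonist+DMSO and reference-inhibitor wells.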

[2] = target: T2, human TLR7 (Homo sapiens, UniProt Q9NYK1); assay: TLR7 inhibition reporter assay (HEK-Blue cells, SEAP reporter); conditions: HEK-Blue cells overexpressing human TLR7; stimulated with gardiquimod 7.5 μM; SEAP read after 22 hour; dose range 0.05 nM-50 μM
T2 construct: host or cells: HEK-Blue cells
T2 sequence (Q9NYK1 27-1049): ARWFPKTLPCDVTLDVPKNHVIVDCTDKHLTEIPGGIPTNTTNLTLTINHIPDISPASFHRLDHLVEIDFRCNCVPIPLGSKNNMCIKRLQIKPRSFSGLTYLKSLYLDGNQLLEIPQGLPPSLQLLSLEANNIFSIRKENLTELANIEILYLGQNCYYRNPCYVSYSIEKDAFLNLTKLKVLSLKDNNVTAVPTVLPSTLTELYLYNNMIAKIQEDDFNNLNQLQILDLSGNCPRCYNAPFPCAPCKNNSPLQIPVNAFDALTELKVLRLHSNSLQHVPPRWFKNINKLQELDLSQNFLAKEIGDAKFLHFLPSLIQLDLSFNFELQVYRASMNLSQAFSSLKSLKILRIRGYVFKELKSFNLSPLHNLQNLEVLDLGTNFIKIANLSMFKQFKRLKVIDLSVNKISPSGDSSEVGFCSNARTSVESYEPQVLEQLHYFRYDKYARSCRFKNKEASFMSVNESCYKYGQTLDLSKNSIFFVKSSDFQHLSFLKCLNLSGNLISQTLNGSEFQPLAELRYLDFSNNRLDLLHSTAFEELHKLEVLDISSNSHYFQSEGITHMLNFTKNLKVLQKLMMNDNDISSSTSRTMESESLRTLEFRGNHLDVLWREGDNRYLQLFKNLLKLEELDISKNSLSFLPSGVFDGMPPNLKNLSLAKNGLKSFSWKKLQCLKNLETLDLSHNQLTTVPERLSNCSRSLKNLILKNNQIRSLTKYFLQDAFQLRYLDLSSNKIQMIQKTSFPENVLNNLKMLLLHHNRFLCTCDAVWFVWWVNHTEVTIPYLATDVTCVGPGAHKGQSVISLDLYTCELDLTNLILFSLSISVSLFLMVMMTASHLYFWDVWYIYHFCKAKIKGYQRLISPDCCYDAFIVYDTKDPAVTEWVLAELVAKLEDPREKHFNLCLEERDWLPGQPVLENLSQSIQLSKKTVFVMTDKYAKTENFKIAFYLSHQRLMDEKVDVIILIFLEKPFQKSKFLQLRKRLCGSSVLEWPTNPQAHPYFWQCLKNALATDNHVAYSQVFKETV
Outline: as §1

[3] = target: T3, human TLR9 (Homo sapiens, UniProt Q9NR96); assay: TLR9 inhibition reporter assay (HEK-Blue cells, SEAP reporter); conditions: HEK-Blue cells overexpressing human TLR9; stimulated with ODN2006 5 nM; SEAP read after 22 hour; dose range 0.05 nM-50 μM
T3 construct: host or cells: HEK-Blue cells
T3 sequence (Q9NR96 26-1032): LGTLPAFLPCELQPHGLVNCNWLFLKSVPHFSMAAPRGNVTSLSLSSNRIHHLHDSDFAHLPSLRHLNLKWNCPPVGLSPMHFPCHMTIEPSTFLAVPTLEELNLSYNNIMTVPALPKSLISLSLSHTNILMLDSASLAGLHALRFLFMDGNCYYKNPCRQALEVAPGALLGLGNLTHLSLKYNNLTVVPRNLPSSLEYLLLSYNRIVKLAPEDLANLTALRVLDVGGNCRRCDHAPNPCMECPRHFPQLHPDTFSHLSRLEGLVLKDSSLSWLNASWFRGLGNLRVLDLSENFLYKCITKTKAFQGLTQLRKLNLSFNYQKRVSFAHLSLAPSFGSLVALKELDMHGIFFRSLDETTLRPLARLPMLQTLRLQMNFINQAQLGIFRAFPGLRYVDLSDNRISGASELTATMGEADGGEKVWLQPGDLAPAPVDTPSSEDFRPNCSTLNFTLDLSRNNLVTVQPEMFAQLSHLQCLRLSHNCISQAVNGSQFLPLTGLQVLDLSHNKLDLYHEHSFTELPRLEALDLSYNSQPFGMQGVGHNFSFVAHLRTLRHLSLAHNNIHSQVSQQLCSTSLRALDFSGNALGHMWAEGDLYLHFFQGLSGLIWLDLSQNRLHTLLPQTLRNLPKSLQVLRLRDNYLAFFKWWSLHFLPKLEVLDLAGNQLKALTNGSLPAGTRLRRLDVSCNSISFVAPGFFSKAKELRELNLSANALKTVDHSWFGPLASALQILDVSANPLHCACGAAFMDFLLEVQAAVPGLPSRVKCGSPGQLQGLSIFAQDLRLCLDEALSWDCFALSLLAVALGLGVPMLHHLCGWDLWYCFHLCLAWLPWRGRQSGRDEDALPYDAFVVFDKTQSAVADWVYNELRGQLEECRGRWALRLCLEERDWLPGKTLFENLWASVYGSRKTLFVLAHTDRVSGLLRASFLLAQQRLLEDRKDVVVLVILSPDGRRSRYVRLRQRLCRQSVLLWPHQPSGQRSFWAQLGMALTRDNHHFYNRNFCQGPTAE
Outline: as §1

Structure (SMILES)	IC50 [1]	IC50 [2]	IC50 [3]
CC(C)N1CCC(c2ccc(-c3ccc4c(c3)cc(-c3ccc(S(C)(=O)=O)cc3)c(=O)n4CCO)cc2)CC1 [Example 72, 1-(2-hydroxyethyl)-3-(4-methanesulfonylphenyl)-6-{4-[1-(propan-2-yl)piperidin-4-yl]phenyl}-1,2-dihydroquinolin-2-one]	21700 nM	3580 nM	154 nM
CC(C)N1CCC(c2ccc(-c3ccc4c(c3)cc(-c3ccccc3)c(=O)n4C)cc2)CC1 [Example 73, 1-methyl-3-phenyl-6-{4-[1-(propan-2-yl)piperidin-4-yl]phenyl}-1,2-dihydroquinolin-2-one]	763 nM	1480 nM	219 nM
CC(C)N1CCC(c2ccc(-c3ccc4c(c3)cc(-c3ccc(N(C)S(C)(=O)=O)cc3)c(=O)n4C)cc2)CC1 [Example 74, N-methyl-N-[4-(1-methyl-2-oxo-6-{4-[1-(propan-2-yl)piperidin-4-yl]phenyl}-1,2-dihydroquinolin-3-yl)phenyl]methanesulfonamide]	29600 nM	12000 nM	237 nM
CC(C)N1CCC(c2ccc(Nc3ccc4c(c3)cc(-c3ccc(S(C)(=O)=O)cc3)c(=O)n4C)cc2)CC1 [Example 75, 3-(4-methanesulfonylphenyl)-1-methyl-6-({4-[1-(propan-2-yl)piperidin-4-yl]phenyl}amino)-1,2-dihydroquinolin-2-one]	≥ 50000 nM	6630 nM	253 nM
CN1CCC(c2ccc(-c3ccc4[nH]c(=O)c(-c5ccc(S(C)(=O)=O)cc5)cc4c3)cc2)CC1 [Example 76, 3-(4-methanesulfonylphenyl)-6-[4-(1-methylpiperidin-4-yl)phenyl]-1,2-dihydroquinolin-2-one]	9850 nM	2030 nM	261 nM
CCc1c(-c2ccc(S(C)(=O)=O)cc2)c(=O)n(C)c2ccc(-c3ccc(N4CCN(C(C)C)CC4)cc3)cc12 [Example 77, 4-ethyl-3-(4-methanesulfonylphenyl)-1-methyl-6-{4-[4-(propan-2-yl)piperazin-1-yl]phenyl}-1,2-dihydroquinolin-2-one]	361 nM	10200 nM	267 nM
CN1CCC(c2ccc(-c3ccc4c(c3)cc(-c3ccc(S(C)(=O)=O)cc3)c(=O)n4C)cc2)CC1 [Example 78, 3-(4-methanesulfonylphenyl)-1-methyl-6-[4-(1-methylpiperidin-4-yl)phenyl]-1,2-dihydroquinolin-2-one]	2260 nM	2120 nM	286 nM
CCn1c(=O)c(-c2ccc(S(C)(=O)=O)cc2)cc2cc(-c3ccc(C4CCN(C(C)C)CC4)cc3)ccc21 [Example 79, 1-ethyl-3-(4-methanesulfonylphenyl)-6-{4-[1-(propan-2-yl)piperidin-4-yl]phenyl}-1,2-dihydroquinolin-2-one]	25800 nM	5330 nM	287 nM
CCCn1c(=O)c(-c2ccc(S(C)(=O)=O)cc2)cc2cc(-c3ccc(C4CCN(C(C)C)CC4)cc3)ccc21 [Example 80, 3-(4-methanesulfonylphenyl)-6-{4-[1-(propan-2-yl)piperidin-4-yl]phenyl}-1-propyl-1,2-dihydroquinolin-2-one]	15100 nM	8380 nM	298 nM
CC(=O)Nc1ccc(-c2cc3cc(-c4ccc(C5CCN(C(C)C)CC5)cc4)ccc3[nH]c2=O)cc1 [Example 81, N-[4-(2-oxo-6-{4-[1-(propan-2-yl)piperidin-4-yl]phenyl}-1,2-dihydroquinolin-3-yl)phenyl]acetamide]	796 nM	333 nM	309 nM
CC(C)N1CCC(c2ccc(-c3ccc4c(c3)cc(-c3ccc(S(C)(=O)=O)cc3)c(=O)n4CCCO)cc2)CC1 [Example 82, 1-(3-hydroxypropyl)-3-(4-methanesulfonylphenyl)-6-{4-[1-(propan-2-yl)piperidin-4-yl]phenyl}-1,2-dihydroquinolin-2-one]	19100 nM	5500 nM	312 nM
CC(C)N1CCC(c2ccc(-c3ccc4[nH]c(=O)c(-c5ccc(NS(C)(=O)=O)cc5)cc4c3)cc2)CC1 [Example 83, N-[4-(2-oxo-6-{4-[1-(propan-2-yl)piperidin-4-yl]phenyl}-1,2-dihydroquinolin-3-yl)phenyl]methanesulfonamide]	≥ 50000 nM	369 nM	354 nM
CCc1c(-c2ccc(S(C)(=O)=O)cc2)c(=O)[nH]c2ccc(-c3ccc(N4CCN(C(C)C)CC4)cc3)cc12 [Example 84, 4-ethyl-3-(4-methanesulfonylphenyl)-6-{4-[4-(propan-2-yl)piperazin-1-yl]phenyl}-1,2-dihydroquinolin-2-one]	672 nM	2320 nM	389 nM
